# Key:
# [1] = test system: mouse embryonic fibroblast (MEF) cells; experiment: Determining complete fusion inhibition: saturating inhibitor concentration, Western blot; assay type: cell-based
# Description: FIG. 2 is a Western blot analysis and corresponding graphs illustrating the results of the study to determine the saturating inhibitor concentration of bafilomycin A1 required to fully block autophagosomal/lysosomal fusion.
# This saturating concentration should be determined prior to performing the method. […] Although this can be performed through Western blot analysis, a more precise technique is to determine the change over time of the autophagosome pool size after inhibition of fusion using the method of the present invention (FIG. 2). Thus, the change in pool size before and shortly after inhibition of fusion is determined and the rate of change (typically expressed over 1 hour) is calculated.
# Bafilomycin A1 was selected as the inhibitor in this example because it is the most commonly used drug in the field.
# LC3, p62 and pmTOR = experiment: Western blot analysis probing for LC3, p62 and pmTOR (validation); assay type: cell-based; settings: treatment with bafilomycin
# Procedure: FIG. 8 is a Western blot analysis probing for LC3, p62 and pmTOR. […] This method, however, cannot measure dynamic changes and vesicular pool size required to measure autophagosome flux. […] Western blot analysis and TEM was performed in the presence and absence of bafilomycin A1. […] Therefore, autophagosome flux cannot be accurately assessed. It allows the detection of the respective protein, LC3 II, from a whole cell population, without linking the protein band signal to single cell pool sizes of entities. Moreover, the nature of Western blot analysis omits any measurements of dynamic changes (FIG. 8).
# MEF cells = experiment: Autophagosome flux assay: live-cell z-stack fluorescence imaging of GFP-LC3 / LysoTracker Red cells, with fusion blocked by 400 nM bafilomycin A1; assay type: cell-based, mouse
# Procedure: For the autophagosomal pool size analysis, the autophagosomes and the lysosomes were visualized and labelled specifically. The autophagolysosomal entities were identified by co-localization analysis. Stably transfected green fluorescent protein-LC3 (GFP-LC3) cells were treated with the lysosome-labelling marker, LysoTracker® Red (Life Technologies, #L-7528) in order to visualize the autophagosomes, the lysosomes and the autophagolysosomes. MEF cells were seeded onto a sterile cover-slip patterned with large fibronectin discs (CYTOO, #10-003-10) in a CYTOO chamber single well plate. Cells were seeded at a density of 2×10^4 cells and incubated for 30 minutes. Thereafter, the chamber was rinsed several times using DMEM until all adherent cells in the non-patterned regions were washed off. The cells were maintained for 2 hours prior to the experiment in DMEM, containing 75 nM LysoTracker Red, in a humidified atmosphere in the presence of 5% CO2 at […]. The chamber plate was then enclosed in an Olympus IX-81 stage of an inverted fluorescence microscope in the presence of 5% CO2 for the duration of the experiment. Serum starvation was avoided, since it would upregulate autophagosome flux and mask the cell-inherent basal autophagosome flux.
# Z-stack image acquisition was performed in order to acquire the complete autophagosomal pool size. An Olympus IX-81 coupled to an MT-20 and xenon burner 150 W and an F-view camera were employed. Temperature and 5% CO2 were controlled. For live cell acquisition, single cell acquisition was performed using automated stage coordinate settings. CellR-based software (Olympus, Soft Imaging) was employed. Images were processed using Cell R imaging software and exported to the modified (for high throughput) automated counting software (ImageJ with WatershedCounting3D plug in (Gniadek et al., 2007)), to count the green and red puncta using voxel dimension 0.08 for both x and y as the search parameters. Puncta count and morphometric analysis were performed using the Watershed Counting3D plugin of ImageJ. Images were converted to RGB colour format and processed by WatershedCounting3D. Puncta count and surface area were determined for each colour puncta from the output file generated. Equations 1, 2 and 3 described above were used to determine the radius, volume and total surface area of spheres.
# In order to assess the basal autophagosome flux in steady state, cells were treated with 400 nM bafilomycin A1 (FIG. 4). The autophagosomal pool size was monitored for two hours post-inhibition and images were acquired at 30 minute intervals. The basal flux, Jbasal, was determined by allowing the autophagic system to reach a steady state under basal conditions (basal flux is the initial slope of the progress curve at the point of inhibition of fusion). Multiple cells (n=10) were assessed simultaneously using a stage control. The transition time, τ, was calculated from the ratio τ=nA/J of the autophagosome pool size and autophagosome flux, and indicated the turnover time of the autophagosome pool at steady state.
# The autophagosome flux J, the autophagosomal pool size nA, and the autophagosomal transition time τ were determined (FIG. 6 and Table 1).
# [2] = 25 nM rapamycin versus basal, increase
SMILES,Inhibition of autophagosomal-lysosomal fusion ([1]; 400 nM for 2 hours),Cell toxicity ([1]; concentration of 800 nM),"LC3II and p62 bands (LC3, p62 and pmTOR)","Transition time, % change (% Δ) (MEF cells; 25 nM rapamycin versus basal, decrease)","Autophagosome Pool size nA, % change (% Δ) (MEF cells; [2])","Autophagosome flux J, % change (% Δ) (MEF cells; [2])","Autophagolysosomal transition time, τAL (MEF cells; induced with rapamycin)","Autophagosomal membrane flux, Jmem (MEF cells; induced with rapamycin)","Cytoplasmic volume consumption rate, Jvol (MEF cells; induced with rapamycin)","Autophagosome flux, J (MEF cells; induced with rapamycin (25 nM))",Average volume of an autophagosome (MEF cells; induced with rapamycin (25 nM)),"Number of autophagolysosomes, nAL (MEF cells; induced with rapamycin (25 nM))","Number of autophagosomes, nA (MEF cells; induced with rapamycin (25 nM))","Autophagosomal transition time, τA (MEF cells; induced with rapamycin, τ=nA/J)",Autophagosome Pool size nA (MEF cells; modulator rapamycin (Table 2)),"Autophagosome flux, J (MEF cells; modulator rapamycin (Table 2))",Transition time (MEF cells; modulator rapamycin (Table 2)),"Autophagosome Pool size nA, net change (Δ) (MEF cells; rapamycin versus basal)","Autophagosome flux J, net change (Δ) (MEF cells; rapamycin versus basal)","Transition time, net change (Δ) (MEF cells; rapamycin versus basal, decrease)"
CO/C1=C\C(C)=C\[C@@H](C)[C@@H](O)[C@@H](C)C/C(C)=C/C=C/[C@H](OC)[C@@H]([C@@H](C)[C@@H](O)[C@H](C)[C@@]2(O)C[C@@H](O)[C@H](C)[C@@H](C(C)C)O2)OC1=O [Bafilomycin A1],complete inhibition,cell toxicity was observed,increases,,,,,,,,,,,,,,,,,
CO[C@H]1C[C@@H]2CC[C@@H](C)[C@@](O)(O2)C(=O)C(=O)N2CCCC[C@H]2C(=O)O[C@H]([C@H](C)C[C@@H]2CC[C@@H](O)[C@H](OC)C2)CC(=O)[C@H](C)/C=C(\C)[C@@H](O)[C@@H](OC)C(=O)[C@H](C)C[C@H](C)/C=C/C=C/C=C/1C [rapamycin],,,,69.8%,22.4%,315%,2.4 h,8268 μm^2/hr/cell,495 fL/hr/cell,105.4 A/hr/cell,4.7 fL,251.2 AL/cell,16.7 A/cell,0.16 h,16.4 No. of autophagosomes,105.4 No. of autophagosomes/cell*hr^1,0.16 h,3 No. of autophagosomes,80 No. of autophagosomes/cell*hr^1,0.37 h

# Reference: patent US12352763B2, “Method of determining autophagosome flux and uses thereof” (Stellenbosch University, priority 2016, dated 2025)
